{
  "source": "patent US9127015B2",
  "about": "“Tricyclopyrazole derivatives” (NERVIANO MEDICAL SCIENCES S.R.L., priority 2009, dated 2015)",
  "format_in_all_cases": "biochemical",
  "key": {"[1]": {"target": "CDC7/DBF4 (Homo sapiens, UniProt O00311)", "sequence (O00311 whole entry)": "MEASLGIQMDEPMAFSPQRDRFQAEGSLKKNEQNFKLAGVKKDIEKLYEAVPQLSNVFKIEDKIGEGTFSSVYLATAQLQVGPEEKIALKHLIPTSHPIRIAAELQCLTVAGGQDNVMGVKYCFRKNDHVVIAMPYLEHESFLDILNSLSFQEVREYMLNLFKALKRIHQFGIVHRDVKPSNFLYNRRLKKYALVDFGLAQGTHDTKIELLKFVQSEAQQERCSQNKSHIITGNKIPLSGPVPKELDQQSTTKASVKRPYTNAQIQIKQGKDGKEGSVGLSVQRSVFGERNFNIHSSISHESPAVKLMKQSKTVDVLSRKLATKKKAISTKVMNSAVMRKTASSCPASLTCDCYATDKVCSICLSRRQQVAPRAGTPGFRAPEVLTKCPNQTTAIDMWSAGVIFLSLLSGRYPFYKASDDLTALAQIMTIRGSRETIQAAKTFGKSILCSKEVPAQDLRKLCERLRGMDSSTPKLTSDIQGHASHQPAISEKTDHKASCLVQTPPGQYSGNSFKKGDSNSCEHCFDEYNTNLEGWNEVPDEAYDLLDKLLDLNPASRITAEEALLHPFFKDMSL", "sequence (Q9UBU7 whole entry partner)": "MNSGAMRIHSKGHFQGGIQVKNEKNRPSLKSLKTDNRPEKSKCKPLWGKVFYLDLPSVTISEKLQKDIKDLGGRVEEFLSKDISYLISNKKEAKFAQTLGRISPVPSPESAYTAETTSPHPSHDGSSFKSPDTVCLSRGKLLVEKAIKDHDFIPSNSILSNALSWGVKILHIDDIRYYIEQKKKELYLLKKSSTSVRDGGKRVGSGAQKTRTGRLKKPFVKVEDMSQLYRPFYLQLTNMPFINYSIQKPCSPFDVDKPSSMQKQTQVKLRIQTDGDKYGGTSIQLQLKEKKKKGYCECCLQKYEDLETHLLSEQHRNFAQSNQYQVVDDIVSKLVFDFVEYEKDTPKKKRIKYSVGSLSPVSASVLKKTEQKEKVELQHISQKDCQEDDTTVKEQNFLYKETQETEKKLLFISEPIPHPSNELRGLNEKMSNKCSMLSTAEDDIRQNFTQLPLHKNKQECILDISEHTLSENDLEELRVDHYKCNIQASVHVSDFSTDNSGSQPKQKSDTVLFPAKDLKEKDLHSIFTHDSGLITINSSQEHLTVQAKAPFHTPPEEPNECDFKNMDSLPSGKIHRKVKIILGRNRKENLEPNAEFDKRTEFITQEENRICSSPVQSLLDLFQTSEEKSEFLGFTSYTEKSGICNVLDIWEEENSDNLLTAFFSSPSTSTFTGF", "assay": "Inhibition assay of Cdc7 activity (Dowex resin capture, 33P-ATP, MCM2 substrate)", "settings": "Enzyme CDC7/DBF4", "method": "(§1) The inhibitory activity of putative kinase inhibitors and the potency of selected compounds were also determined using a trans-phosphorylation assay.\n(§2) Specific peptide or protein substrates are trans-phosphorylated by their specific ser-thr or tyr kinase in the presence of ATP traced with ^33P-γ-ATP, and in the presence of their own optimal buffer and cofactors. At the end of the phosphorylation reaction, more than 98% unlabeled ATP and radioactive ATP is captured by an excess of the ion exchange dowex resin; the resin then settles down to the bottom of the reaction plate by gravity. Supernatant is subsequently withdrawn and transferred into a counting plate, then evaluated by β-counting.\n(§3) As example herein are reported the assay conditions used for testing the compounds of formula (I) against cdc7 and cdk2 kinase.\nInhibition Assay of Cdc7 Activity\nThe inhibiting activity of putative Cdc7 inhibitors and the potency of selected compounds is determined through a method of assay based on the use of Dowex resin capture technology.\nThe assay consists of the transfer of radioactivity labeled phosphate moiety by the kinase to an acceptor substrate.\nThe resulting ^33P-labeled product is separated from unreacted tracer, transferred into a scintillation cocktail and light emitted is measured in a scintillation counter. […]"}, "[2]": {"target": "KIT (Homo sapiens, UniProt P10721)", "sequence (P10721 26-976)": "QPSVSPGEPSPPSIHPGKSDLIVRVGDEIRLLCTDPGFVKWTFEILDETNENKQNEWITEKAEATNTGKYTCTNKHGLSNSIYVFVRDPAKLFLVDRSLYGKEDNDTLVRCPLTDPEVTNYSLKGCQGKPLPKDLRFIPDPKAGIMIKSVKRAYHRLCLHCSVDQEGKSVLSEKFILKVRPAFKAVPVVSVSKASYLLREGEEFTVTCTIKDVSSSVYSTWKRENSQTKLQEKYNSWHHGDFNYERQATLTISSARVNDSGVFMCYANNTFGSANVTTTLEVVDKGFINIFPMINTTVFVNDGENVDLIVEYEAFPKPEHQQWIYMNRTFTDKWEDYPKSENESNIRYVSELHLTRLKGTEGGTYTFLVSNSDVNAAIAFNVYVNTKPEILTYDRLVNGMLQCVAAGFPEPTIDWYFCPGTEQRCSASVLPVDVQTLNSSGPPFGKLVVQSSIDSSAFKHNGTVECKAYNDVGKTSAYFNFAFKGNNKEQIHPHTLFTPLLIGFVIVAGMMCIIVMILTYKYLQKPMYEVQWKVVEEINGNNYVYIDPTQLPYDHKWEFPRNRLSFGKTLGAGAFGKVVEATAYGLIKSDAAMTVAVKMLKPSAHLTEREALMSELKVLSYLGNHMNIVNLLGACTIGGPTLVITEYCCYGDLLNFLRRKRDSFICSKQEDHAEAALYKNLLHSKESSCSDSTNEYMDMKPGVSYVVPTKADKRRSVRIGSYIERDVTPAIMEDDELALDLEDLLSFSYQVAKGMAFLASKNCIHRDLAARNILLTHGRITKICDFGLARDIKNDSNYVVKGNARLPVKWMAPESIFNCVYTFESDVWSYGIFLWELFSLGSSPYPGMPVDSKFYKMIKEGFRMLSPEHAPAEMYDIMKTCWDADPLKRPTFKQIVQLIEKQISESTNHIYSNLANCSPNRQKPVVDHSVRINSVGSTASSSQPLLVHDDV", "assay": "Kinase inhibition assay, IC50 (Table A)", "settings": "Enzyme KIT", "method": "(§4) The inhibiting activity of putative kinase inhibitors and the potency of selected compounds is determined through a method of assay based on the use of the Kinase-Glo® Luminescent Kinase Assay (commercially available from Promega corporation and described in Koresawa, M. and Okabe, T. (2004) High-throughput screening with quantitation of ATP consumption: A universal non-radioisotope, homogeneous assay for protein kinase. Assay Drug Dev. Technol. 2, 153-60).\nas §1, §2\n(§5) Reaction conditions are target (enzyme) dependent and thus undergo individual adaptations. Also the buffer conditions may vary depending on the kinase of interest. The assay can be used with virtually any kinase and substrate combination and is suitable for all type of protein kinases, such as ABL, ACK1, AKT1, ALK, AUR1, AUR2, BRK, BUB1, CDC7/DBF4, CDK21CYCA, CHK1, CK2, EEF2K, EGFR1, EphA2, EphB4, ERK2, FAK, FGFR1, FLT3, GSK3beta, Haspin, IGFR1, IKK2, IR, JAK1, JAK2, JAK3, KIT, LCK, LYN, MAPKAPK2, MELK, MET, MNK2, MPSI, MST4, NEK6, NIM1, P38alpha, PAK-4, PDGFR, PDK1, PERK, PIM1, PIM2, PKAalpha, PKCbeta, PLK1, RET, ROS1, SULU1, Syk, TLK2, TRKA, TYK, VEGFR2, VEGFR3, ZAP70."}, "[3]": {"target": "MELK (Homo sapiens, UniProt Q14680)", "sequence (Q14680 whole entry)": "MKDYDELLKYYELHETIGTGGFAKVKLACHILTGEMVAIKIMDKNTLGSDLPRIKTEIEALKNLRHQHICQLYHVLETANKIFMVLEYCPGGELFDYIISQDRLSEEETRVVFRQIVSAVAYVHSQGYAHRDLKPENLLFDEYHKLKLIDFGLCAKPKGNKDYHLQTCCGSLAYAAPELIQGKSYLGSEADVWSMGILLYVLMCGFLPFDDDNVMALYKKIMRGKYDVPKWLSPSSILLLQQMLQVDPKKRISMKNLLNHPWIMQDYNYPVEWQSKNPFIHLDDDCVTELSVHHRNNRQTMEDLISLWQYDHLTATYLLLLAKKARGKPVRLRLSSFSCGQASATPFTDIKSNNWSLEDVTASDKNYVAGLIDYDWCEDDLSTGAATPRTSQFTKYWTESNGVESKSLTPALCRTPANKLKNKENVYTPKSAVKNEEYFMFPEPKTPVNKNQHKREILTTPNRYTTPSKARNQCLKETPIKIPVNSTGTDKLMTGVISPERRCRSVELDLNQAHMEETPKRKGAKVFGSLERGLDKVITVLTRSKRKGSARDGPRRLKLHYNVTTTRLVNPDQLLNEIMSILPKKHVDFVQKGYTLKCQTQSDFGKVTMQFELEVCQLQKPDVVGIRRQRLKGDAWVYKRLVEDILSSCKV", "assay": "Kinase inhibition assay, IC50 (Table A)", "settings": "Enzyme MELK", "method": "as §4, §1, §2, §5"}, "[4]": {"target": "GSK3beta (Homo sapiens, UniProt P49841)", "sequence (P49841 whole entry)": "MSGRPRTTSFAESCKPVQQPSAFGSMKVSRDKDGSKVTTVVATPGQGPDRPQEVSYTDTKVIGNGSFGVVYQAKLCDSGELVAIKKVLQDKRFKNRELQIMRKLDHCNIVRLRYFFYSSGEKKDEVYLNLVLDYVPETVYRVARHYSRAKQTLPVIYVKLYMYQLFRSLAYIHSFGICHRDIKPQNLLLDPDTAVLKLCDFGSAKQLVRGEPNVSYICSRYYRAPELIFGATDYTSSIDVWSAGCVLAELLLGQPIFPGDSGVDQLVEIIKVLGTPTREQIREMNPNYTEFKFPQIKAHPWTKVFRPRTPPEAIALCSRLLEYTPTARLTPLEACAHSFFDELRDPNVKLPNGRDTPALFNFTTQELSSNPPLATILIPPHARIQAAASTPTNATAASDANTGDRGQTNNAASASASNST", "assay": "Kinase inhibition assay, IC50 (Table A)", "settings": "Enzyme GSK3beta", "method": "as §4, §1, §2, §5"}, "[5]": {"target": "T1, CDK2/CYCA (Homo sapiens, UniProt P24941)", "T1 construct": "host or cells: baculovirus expression system (co-expression)", "assay": "Inhibition assay of Cdk2/Cyclin A activity (33P-ATP, histone H1 substrate)", "settings": "Enzyme CDK2/CYCA", "method": "as §1, §2, §3\nTo each well of the plate were added: • 10 μl test compound (10 increasing concentrations in the nM to uM range to generate a dose-response curve). The solvent for test compounds contained 3% DMSO. (final concentration 1%) • 10 μl substrate MCM2 ([…] final concentration), a mixture of cold ATP ([…] final concentration) and radioactive ATP (1/5000 molar ratio with cold ATP). • 10 μl enzyme (Cdc7/Dbf4, 2 nM final concentration) that started the reaction. […]"}},
  "data": [
    {"smiles": "CNC(=O)c1cc2n(c1)CCc1c(NC(=O)c3ccc(N4CCN(C)CC4)cc3)n[nH]c1-2", "note": "[Example A16-M1-B18]", "values": [
      {"measurement": "IC50", "setting": "[1]", "value": 2990, "unit": "nM"},
      {"measurement": "IC50", "setting": "[2]", "value": 2610, "unit": "nM"},
      {"measurement": "IC50", "setting": "[3]", "value": 6330, "unit": "nM"},
      {"measurement": "IC50", "setting": "[4]", "value": 1920, "unit": "nM"},
      {"measurement": "IC50", "setting": "[5]", "value": 1900, "unit": "nM"}
    ]}
  ]
}
